This note sets out measurements from patent publication US20170001990A1 (Genentech, Inc., priority 2014, published 2017).

Molecules are shown by their SMILES.

One may read the IC50 as the concentration that inhibits the measured activity by half.

This experiment has as its target Human recombinant carboxy-terminal his-tagged LDHA (amino acids 2-332) (Homo sapiens, UniProt P00338). Kind of experiment: LDHA enzyme inhibition assay (NADH fluorescence). The settings on record: LDHA IC50 (μM), 1 nM LDHA, NADH and pyruvate, stereochemistry of tested sample given.
Turning to `CN1C(=O)C(Sc2ccccc2Cl)C(=O)CC1(c1ccsc1)c1cccc(OC2CCOCC2)c1` (centres unmarked) [Example 23, 3-(2-chlorophenyl)sulfanyl-1-methyl-6-(3-tetrahydropyran-4-yloxyphenyl)-6-(3-thienyl)piperidine-2,4-dione], the IC50 stood at 0.026 µM.
For the molecule `O=C1CC(c2ccsc2)(c2cccc(Oc3ccccc3F)n2)NC(=O)C1Sc1ccccc1Cl` (centres unmarked) [Example 52, 3-(2-chlorophenyl)sulfanyl-6-[6-(2-fluorophenoxy)-2-pyridyl]-6-(3-thienyl)piperidine-2,4-dione], the IC50 came out at 0.045 µM.
As to `O=C1C[C@](c2ccsc2)(c2cccc(Oc3ccc(Br)cc3Cl)n2)NC(=O)C1Sc1ccccc1Cl` (stereo partly drawn) [Example 327, (6S)-6-[6-(4-bromo-2-chloro-phenoxy)-2-pyridyl]-3-(2-chlorophenyl) sulfanyl-6-(3-thienyl) piperidine-2,4-dione], the IC50 came to 0.035 µM.
The value for `O=C1CC(c2ccc(N3CCOCC3)cc2)(c2cccc(Oc3ccc(F)c(F)c3)n2)NC(=O)C1Sc1ccccc1Cl` (centres unmarked) [Example 40, 3-(2-chlorophenyl)sulfanyl-6-[6-(3,4-difluorophenoxy)-2-pyridyl]6-(4-morpholinophenyl)piperidine-2,4-dione] was 0.036 µM; that for `CC(C)CCOc1cccc(C2(c3ccsc3)CC(=O)C(Sc3ccccc3Cl)C(=O)N2)n1` (single isomer, unassigned) [Example 119, 3-(2-chlorophenyl)sulfanyl-6-(6-isopentyloxy-2-pyridyl)-6-(3-thienyl) piperidine-2,4-dione] was 0.293 µM; that for `O=C1CC(c2ccsc2)(c2cccc(Oc3cncc(F)c3)n2)NC(=O)C1Sc1ccccc1Cl` (single isomer, unassigned) [Example 65, 3-(2-chlorophenyl)sulfanyl-6-[6-[(5-fluoro-3-pyridyl)oxy]-2-pyridyl]-6-(3-thienyl)piperidine-2,4-dione] was 0.056 µM.
Next, `O=C1C[C@@](c2ccsc2)(c2cccc(OCCC3CC3)n2)NC(=O)C1Sc1ccccc1Cl` (stereo partly drawn) [Example 95, (6R)-3-((2-chlorophenyl)thio)-6-(6-(2-cyclo-propylethoxy)pyridin-2-yl)-6-(thiophen-3-yl) piperidine-2,4-dione]: 0.29 µM; `CC(Oc1cccc(C2(c3ccsc3)CC(=O)C(Sc3ccccc3Cl)C(=O)N2)n1)C1CC1` (single isomer, unassigned) [Example 184, 3-(2-chlorophenyl)sulfanyl-6-[6-(1-cyclopropylethoxy)-2-pyridyl]-6-(3-thienyl) piperidine-2,4-dione]: 0.002 µM.
The value for `O=C1CC(c2ccsc2)(c2cccc(OCCC3CCCCC3)n2)NC(=O)C1Sc1ccccc1Cl` (single isomer, unassigned) [Example 208, 3-(2-chlorophenyl)sulfanyl-6-[6-(2-cyclohexylethoxy)-2-pyridyl]-6-(3-thienyl) piperidine-2,4-dione] was 0.149 µM; that for `O=C1C[C@](c2ccsc2)(c2cccc(OCCC3CC3)n2)NC(=O)C1Sc1ccccc1Cl` (stereo partly drawn) [Example 92, (6S)-3-((2-chlorophenyl)thio)-6-(6-(2-cyclopropyl-ethoxy)pyridin-2-yl)-6-(thiophen-3-yl)piperidine-2,4-dione] was 0.007 µM; that for `O=C1CC(c2ccsc2)(c2cccc(NCc3ccc(F)cc3)n2)NC(=O)C1Sc1ccccc1Cl` (single isomer, unassigned) [Example 291, 3-((2-chlorophenyl)thio)-6-(6-((4-fluorobenzyl)amino)pyridin-2-yl)-6-(thiophen-3-yl)piperidine-2,4-dione] was 0.093 µM.
Take `O=C1CC(c2ccsc2)(c2cccc(OCCCC(F)(F)F)n2)NC(=O)C1Sc1ccccc1Cl` (single isomer, unassigned) [Example 121, 3-(2-chlorophenyl)sulfanyl-6-(3-thienyl)-6-[6-(4,4,4-trifluorobutoxy)-2-pyridyl]piperidine-2,4-dione]: the 50% inhibitory concentration (IC50) is 0.008 µM.
For the molecule `Cn1ccnc1Nc1cccc(C2(c3ccsc3)CC(=O)C(Sc3ccccc3Cl)C(=O)N2)n1` (centres unmarked) [Example 277, 3-((2-chlorophenyl)thio)-6-(6-((1-methyl-1H-imidazol-2-yl)amino)pyridin-2-yl)-6-(thiophen-3-yl)piperidine-2,4-dione], the IC50 is 0.337 µM.
The value for `O=C1CC(c2ccsc2)(c2cccc(NS(=O)(=O)N3CCC3)n2)NC(=O)C1Sc1ccccc1Cl` (centres unmarked) [Example 286, N-(6-(5-((2-chlorophenyl)thio)-4,6-dioxo-2-(thiophen-3-yl)piperidin-2-yl)pyridin-2-yl)azetidine-1-sulfonamide] was 0.057 µM.
Next, `O=C1CC(c2ccsc2)(c2cccc(OCC3CCOCC3)n2)NC(=O)C1Sc1ccccc1Cl` (single isomer, unassigned) [Example 187, 3-(2-chlorophenyl)sulfanyl-6-[6-(tetrahydropyran-4-ylmethoxy)-2-pyridyl]-6-(3-thienyl)piperidine-2,4-dione]: 0.025 µM; `CN1C(=O)C(Sc2ccccc2Cl)C(=O)CC1(c1ccsc1)c1ccccc1F` (centres unmarked) [Example 13, 3-(2-chlorophenyl)sulfanyl-6-(2-fluorophenyl)-1-methyl-6-(3-thienyl)piperidine-2,4-dione]: 0.058 µM; `CC(C)(O)CCOc1cccc(C2(c3ccsc3)CC(=O)C(Sc3ccccc3Cl)C(=O)N2)n1` (single isomer, unassigned) [Example 145, 3-(2-chlorophenyl)sulfanyl-6-[6-(3-hydroxy-3-methyl-butoxy)-2-pyridyl]-6-(3-thienyl)piperidine-2,4-dione]: 0.088 µM.
Next, `O=C1CC(c2ccsc2)(c2cccc(Oc3cc(F)cc(CO)c3)n2)NC(=O)C1Sc1ccccc1Cl` (single isomer, unassigned) [Example 216, 3-(2-chlorophenyl)sulfanyl-6-[6-[3-fluoro-5-(hydroxy-methyl)phenoxy]-2-pyridyl]-6-(3-thienyl)piperidine-2,4-dione]: 0.002 µM.
`C[C@@H](CC1CC1)Oc1cccc(C2(c3ccsc3)CC(=O)C(Sc3ccccc3Cl)C(=O)N2)n1` (stereo in doubt) [Example 322, 3-((2-chlorophenyl)thio)-6-(6-((1-cyclopropyl-propan-2-yl)oxy)pyridin-2-yl)-6-(thiophen-3-yl) piperidine-2,4-dione]: the IC50 was determined as 0.012 µM.
Consider `O=C1CC(c2ccsc2)(c2cccc(NCCC3CCCCC3)n2)NC(=O)C1Sc1ccccc1Cl` (centres unmarked) [Example 220, 3-(2-chlorophenyl)sulfanyl-6-[6-(2-cyclohexyl-ethylamino)-2-pyridyl]-6-(3-thienyl)piperidine-2,4-dione], for which the IC50 was determined as 0.162 µM.
The value for `CC(C)CCOc1cccc(C2(c3ccsc3)CC(=O)C(Sc3ccccc3Cl)C(=O)N2)n1` (single isomer, unassigned) [Example 133, 3-(2-chlorophenyl)sulfanyl-6-(6-isopentyloxy-2-pyridyl)-6-(3-thienyl) piperidine-2,4-dione] was 0.089 µM.
In the case of `O=C1CC(c2ccsc2)(c2cccc(Cc3ccc(Cl)c(F)c3)n2)NC(=O)C1Sc1ccccc1Cl` (centres unmarked) [Example 130, 6-(6-(4-chloro-3-fluoro-benzyl)pyridin-2-yl)-3-((2-chlorophenyl)thio)-6-(thiophen-3-yl)piperidine-2,4-dione], the IC50 turned out to be 0.005 µM.
The value for `O=C1CC(c2ccsc2)(c2cccc(OCC3CCC(CO)CC3)n2)NC(=O)C1Sc1ccccc1Cl` (centres unmarked) [Example 253] was 0.081 µM; that for `CCN(c1ccc(F)cc1)c1cccc(C2(c3ccsc3)CC(=O)C(Sc3ccccc3Cl)C(=O)N2)n1` (centres unmarked) [Example 263, 3-((2-chlorophenyl)thio)-6-(6-(ethyl(4-fluorophenyl)amino)pyridin-2-yl)-6-(thiophen-3-yl)piperidine-2,4-dione] was 0.086 µM.
The value for `O=C1CC(c2ccsc2)(c2cccc(OCC3CC3)n2)NC(=O)C1Sc1ccccc1Cl` (single isomer, unassigned) [Example 93, 3-(2-chlorophenyl)sulfanyl-6-[6-(cyclopropyl-methoxy)-2-pyridyl]-6-(3-thienyl)piperidine-2,4-dione] was 0.319 µM.
For `COc1cc(F)cc(Cc2cccc(C3(c4ccsc4)CC(=O)C(Sc4ccccc4Cl)C(=O)N3)n2)c1` (single isomer, unassigned) [Example 156, 3-(2-chlorophenyl)sulfanyl-6-[6-[(3-fluoro-5-methoxy-phenyl)methyl]-2-pyridyl]-6-(3-thienyl) piperidine-2,4-dione], the half-maximal inhibitory concentration (IC50) turned out to be 0.072 µM.
The value for `O=C1CC(c2ccsc2)(c2cccc(OCC3CC(F)(F)C3)n2)NC(=O)C1Sc1ccccc1Cl` (single isomer, unassigned) [Example 165] was 0.004 µM; that for `O=C1CC(c2ccsc2)(c2cccc(OC3CCCc4ccccc43)n2)NC(=O)C1Sc1ccccc1Cl` (centres unmarked) [Example 321, 5-(2-chlorophenyl)sulfanyl-4-hydroxy-2-(6-tetralin-1-yloxy-2-pyridyl)-2-(3-thienyl)-1,3-dihydro-pyridin-6-one] was 0.246 µM.
Turning to `COc1ccc(Oc2cccc(C3(c4ccsc4)CC(=O)C(Sc4ccccc4Cl)C(=O)N3)n2)cc1` (centres unmarked) [Example 59, 3-(2-chlorophenyl)sulfanyl-6-[6-(4-methoxyphenoxy)-2-pyridyl]-6-(3-thienyl) piperidine-2,4-dione], the IC50 is 0.056 µM.
Next, `O=C1CC(c2ccsc2)(c2cccc(NCCC3CC3)n2)NC(=O)C1Sc1ccccc1Cl` (centres unmarked) [Example 173, 3-(2-chlorophenyl)sulfanyl-6-[6-(2-cyclopropyl-ethylamino)-2-pyridyl]-6-(3-thienyl)piperidine-2,4-dione]: 0.183 µM; `CCOc1cccc(C2(c3ccsc3)CC(=O)C(Sc3ccccc3Cl)C(=O)N2)n1` (centres unmarked) [Example 74, 3-(2-chlorophenyl)sulfanyl-6-(6-ethoxy-2-pyridyl)-6-(3-thienyl)piperidine-2,4-dione]: 0.014 µM.
The value for `Cn1nccc1Nc1cccc(C2(c3ccsc3)CC(=O)C(Sc3ccccc3Cl)C(=O)N2)n1` (centres unmarked) [Example 269, 3-((2-chlorophenyl)thio)-6-(6-((1-methyl-1H-pyrazol-5-yl)amino)pyridin-2-yl)-6-(thiophen-3-yl)piperidine-2,4-dione] was 0.073 µM.
